Reference: the supplement of paper PMC9663587

Key:
[1] = compound: CCc1cnn2c(NCc3ccc[n+]([O-])c3)cc(N3CCCC[C@H]3CCO)nc12
[2] = compound: T1, CN(C)C(=O)c1cc2cnc(Nc3ccc(N4CCNCC4)cn3)nc2n1C1CCCC1 [LEE011/Ribociclib]
[3] = compound: COc1cccc2c1C(=O)c1c(O)c3c(c(O)c1C2=O)C[C@@](O)(C(=O)CO)C[C@@H]3O[C@H]1C[C@H](N)[C@H](O)[C@H](C)O1 [Doxorubicin]
[4] = compound: CS(=O)(=O)N1CCN(Cc2cc3nc(-c4cccc5[nH]ncc45)nc(N4CCOCC4)c3s2)CC1 [Pictilisib/GDC0941]
[5] = compound: Cc1cc(Nc2ncc(Cl)c(Nc3ccccc3S(=O)(=O)C(C)C)n2)c(OC(C)C)cc1C1CCNCC1 [Ceritinib/LDK378]
[6] = compound: Cc1nn(C)c(COc2ccc(N3CCN(S(=O)(=O)N(C)C)CC3)cc2)c1-c1cccc2c(CCCOc3cccc4ccccc34)c(C(=O)O)n(CCN3CCOCC3)c12
[7] = compound: C=CC(=O)Nc1ccc(C(=O)Nc2[nH]nc3c2CN(C(=O)N[C@H](CN(C)C)c2ccccc2)C3(C)C)cc1 [YKL-5-124]; assay: increase in dead-cell fraction, 72 h; higher = more death;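 also: breast cancer cell lines in 384-well plates, stained with Hoechst plus LIVE/DEAD far red dye and imaged, cells above an LDR intensity threshold counted dead, Hoechst-negative corpses included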
[8] = compound: CC(=O)c1c(C)c2cnc(Nc3ccc(N4CCN(CCOCCOCCOCCNC(=O)COc5cccc6c5C(=O)N(C5CCC(=O)NC5=O)C6=O)CC4)cn3)nc2n(C2CCCC2)c1=O [BSJ-03-123]; assay: as above
[9] = compound: CC(=O)c1c(C)c2cnc(Nc3ccc(N4CCNCC4)cn3)nc2n(C2CCCC2)c1=O; assay: as above
[10] = compound: CCN1CCN(Cc2ccc(Nc3ncc(F)c(-c4cc(F)c5nc(C)n(C(C)C)c5c4)n3)nc2)CC1; assay: as above
[11] = compound: CCOc1cc2ncc(C#N)c(Nc3ccc(OCc4ccccn4)c(Cl)c3)c2cc1NC(=O)/C=C/CN(C)C [Neratinib/HKI272]; assay: as above
[12] = compound: CCc1cnn2c(NCc3ccc[n+]([O-])c3)cc(N3CCCC[C@H]3CCO)nc12; assay: as above
[13] = compound: T1, LEE011/Ribociclib; assay: as above
[14] = compound: CN(C)C/C=C/C(=O)Nc1ccc(C(=O)N2CCC[C@@H](Nc3ncc(Cl)c(-c4c[nH]c5ccccc45)n3)C2)cc1 [THZ531]; assay: as above
[15] = compound: CN(C)C/C=C/C(=O)Nc1ccc(C(=O)Nc2cccc(Nc3ncc(Cl)c(-c4c[nH]c5ccccc45)n3)c2)cc1 [THZ1]; assay: as above
[16] = compound: CN1CC[C@H](c2c(O)cc(O)c3c(=O)cc(-c4ccccc4Cl)oc23)[C@H](O)C1 [Flavopiridol]; assay: as above
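For GR50, 72 h in this document: breast cancer and non-malignant breast epithelial cell lines, Deep Dye Drop or Dye Drop imaging, nine half-log doses, GR normalized to time-zero plates and DMSO-only controls.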

MGH312
GR50, 72 h [1]: 0.0108 µM | GR50, 72 h [2]: > 10 µM | GR50, 72 h [3]: 0.00621 µM | GR50, 72 h [4]: 0.0806 µM | GR50, 72 h [5]: 1.23 µM | GR50, 72 h [6]: > 10 µM | increase in dead-cell fraction ([7]; 0.001 µM): 0.0188 | increase in dead-cell fraction ([7]; 0.003162 µM): 0.0332 | increase in dead-cell fraction ([7]; 0.01 µM): 0.0482 | increase in dead-cell fraction ([7]; 0.03162 µM): 0.0591 | increase in dead-cell fraction ([7]; 0.1 µM): 0.0669 | increase in dead-cell fraction ([7]; 0.3162 µM): 0.0808 | increase in dead-cell fraction ([7]; 1 µM): 0.0821 | increase in dead-cell fraction ([7]; 3.162 µM): 0.15 | increase in dead-cell fraction ([7]; 10 µM): 0.61 | increase in dead-cell fraction ([8]; 0.001 µM): -0.0024 | increase in dead-cell fraction ([8]; 0.003162 µM): 0.0067 | increase in dead-cell fraction ([8]; 0.01 µM): 0.0098 | increase in dead-cell fraction ([8]; 0.03162 µM): -0.0134 | increase in dead-cell fraction ([8]; 0.1 µM): 0.0037 | increase in dead-cell fraction ([8]; 0.3162 µM): 0.0116 | increase in dead-cell fraction ([8]; 1 µM): 0.0094 | increase in dead-cell fraction ([8]; 3.162 µM): 0.0031 | increase in dead-cell fraction ([8]; 10 µM): 0.55 | increase in dead-cell fraction ([9]; 0.0003162 µM): -0.0083 | increase in dead-cell fraction ([9]; 0.001 µM): -0.0121 | increase in dead-cell fraction ([9]; 0.003162 µM): 0.0011 | increase in dead-cell fraction ([9]; 0.01 µM): -0.0042 | increase in dead-cell fraction ([9]; 0.03162 µM): 0.001 | increase in dead-cell fraction ([9]; 0.1 µM): -0.0039 | increase in dead-cell fraction ([9]; 0.3162 µM): 0.003 | increase in dead-cell fraction ([9]; 1 µM): 0.0034 | increase in dead-cell fraction ([9]; 3.162 µM): 0.0037 | increase in dead-cell fraction ([10]; 0.001 µM): -0.0051 | increase in dead-cell fraction ([10]; 0.003162 µM): -0.0048 | increase in dead-cell fraction ([10]; 0.01 µM): -0.0002 | increase in dead-cell fraction ([10]; 0.03162 µM): -0.0029 | increase in dead-cell fraction ([10]; 0.1 µM): -0.0075 | increase in dead-cell fraction ([10]; 0.3162 µM): 0.0016 | increase in dead-cell fraction ([10]; 1 µM): -0.0026 | increase in dead-cell fraction ([10]; 3.162 µM): 0.0207 | increase in dead-cell fraction ([10]; 10 µM): 0.208 | increase in dead-cell fraction ([11]; 0.0003162 µM): -0.0056 | increase in dead-cell fraction ([11]; 0.001 µM): -0.0054 | increase in dead-cell fraction ([11]; 0.003162 µM): -0.0078 | increase in dead-cell fraction ([11]; 0.01 µM): 0.0126 | increase in dead-cell fraction ([11]; 0.03162 µM): 0.0263 | increase in dead-cell fraction ([11]; 0.1 µM): 0.0191 | increase in dead-cell fraction ([11]; 0.3162 µM): 0.0224 | increase in dead-cell fraction ([11]; 1 µM): 0.0395 | increase in dead-cell fraction ([11]; 3.162 µM): 0.0962 | increase in dead-cell fraction ([12]; 0.0001 µM): 0.0027 | increase in dead-cell fraction ([12]; 0.0003162 µM): 0.0051 | increase in dead-cell fraction ([12]; 0.001 µM): -0.0065 | increase in dead-cell fraction ([12]; 0.003162 µM): -0.0023 | increase in dead-cell fraction ([12]; 0.01 µM): 0.0052 | increase in dead-cell fraction ([12]; 0.03162 µM): 0.481 | increase in dead-cell fraction ([12]; 0.1 µM): 0.649 | increase in dead-cell fraction ([12]; 0.3162 µM): 0.713 | increase in dead-cell fraction ([12]; 1 µM): 0.67 | increase in dead-cell fraction ([13]; 0.001 µM): -0.0153 | increase in dead-cell fraction ([13]; 0.003162 µM): -0.0081 | increase in dead-cell fraction ([13]; 0.01 µM): 0.0061 | increase in dead-cell fraction ([13]; 0.03162 µM): -0.0004 | increase in dead-cell fraction ([13]; 0.1 µM): 0.001 | increase in dead-cell fraction ([13]; 0.3162 µM): -0.0068 | increase in dead-cell fraction ([13]; 1 µM): 0.006 | increase in dead-cell fraction ([13]; 3.162 µM): 0.004 | increase in dead-cell fraction ([13]; 10 µM): -0.0032 | increase in dead-cell fraction ([14]; 0.0001 µM): -0.0016 | increase in dead-cell fraction ([14]; 0.0003162 µM): 0.006 | increase in dead-cell fraction ([14]; 0.001 µM): 0.0097 | increase in dead-cell fraction ([14]; 0.003162 µM): 0.002 | increase in dead-cell fraction ([14]; 0.01 µM): -0.0045 | increase in dead-cell fraction ([14]; 0.03162 µM): 0.0455 | increase in dead-cell fraction ([14]; 0.1 µM): 0.662 | increase in dead-cell fraction ([14]; 0.3162 µM): 0.72 | increase in dead-cell fraction ([14]; 1 µM): 0.639 | increase in dead-cell fraction ([15]; 0.0001 µM): -0.0154 | increase in dead-cell fraction ([15]; 0.0003162 µM): 0 | increase in dead-cell fraction ([15]; 0.001 µM): -0.0061 | increase in dead-cell fraction ([15]; 0.003162 µM): 0.0002 | increase in dead-cell fraction ([15]; 0.01 µM): 0.0559 | increase in dead-cell fraction ([15]; 0.03162 µM): 0.541 | increase in dead-cell fraction ([15]; 0.1 µM): 0.684 | increase in dead-cell fraction ([15]; 0.3162 µM): 0.628 | increase in dead-cell fraction ([15]; 1 µM): 0.699 | increase in dead-cell fraction ([16]; 0.0001 µM): -0.004 | increase in dead-cell fraction ([16]; 0.0003162 µM): -0.0016 | increase in dead-cell fraction ([16]; 0.001 µM): -0.0079 | increase in dead-cell fraction ([16]; 0.003162 µM): 0.013 | increase in dead-cell fraction ([16]; 0.01 µM): 0.0083 | increase in dead-cell fraction ([16]; 0.03162 µM): -0.0027 | increase in dead-cell fraction ([16]; 0.1 µM): 0.0209 | increase in dead-cell fraction ([16]; 0.3162 µM): 0.249 | increase in dead-cell fraction ([16]; 1 µM): 0.705
